Results from publication PMC9395488, “First-in-human study of IM156, a novel potent biguanide oxidative phosphorylation (OXPHOS) inhibitor, in patients with advanced solid tumors” (Investigational New Drugs, 2022).
“Also recorded” adds a separate entry of the source. Read-outs that look alike come from different tables or passages of the source.

Assays:
[1] = Urine pharmacokinetics of IM156 in patients; assay type: in vivo, human; conditions: for % Dose Recovered / CLr / Total Amount Excreted (Ae): urine
[2] = tested on: advanced solid tumors; experiment: Preliminary efficacy (RECIST 1.1 / RANO response, PFS); assay type: in vivo, human
From the text: A preliminary evaluation of efficacy was based on serial CT or magnetic resonance imaging (MRI). Response criteria were as defined by RECIST 1.1 or RANO. The following endpoints were to be assessed: overall response rate (ORR: complete response [CR] plus partial response [PR]), disease control rate (DCR: CR + PR + stable disease [SD]), DoR, and PFS.
The safety population was defined as all patients who received at least one dose of IM156. The PK population was not defined in the protocol but included all patients with sufficient PK data to perform adequate PK modeling. The efficacy population included all patients who underwent at least one tumor imaging assessment while receiving IM156. Safety was assessed using descriptive statistics (e.g., DLTs, AEs, laboratory tests, physical examination, 12-lead ECG). The incidence and number of events were reported for the DLTs observed in Cycle 1 per dose group. […] Two-sided 95% Confidence Intervals (CIs) were also provided. Adverse events and TRAEs were standardized with the System Organ Class and the Preferred Term using the Medical Dictionary for Regulatory Activities v23.0. In addition, TEAEs, serious adverse events (SAEs), TEAE severity, and TEAEs leading to withdrawal were presented by dose group. Efficacy data were to be presented by Waterfall and Swim Lane plots. Time to event endpoints (e.g., DoR, PFS) were determined using Kaplan–Meier estimations with the median value for each endpoint summarized.

[3] = tested on: OXPHOS; experiment: OXPHOS inhibition in whole blood ex vivo; assay type: cell-based; conditions: at ~ 6 μM IM156
Experimental: The maximum plasma exposure achieved in this study was ~ 6 μM in patients who received IM156 at daily doses of 800 mg. […] As such, measurements of target inhibition were not informative using PBMCs-based assays.

[4] = tested on: A549; design: method as in ImmunoMet, 2018; conditions: in A549; ref ImmunoMet, 2018; read-out: OXPHOS inhibition IC50; cited from earlier work
[5] = tested on: protein complex 1; design: method as in ImmunoMet, 2018; conditions: study protocol background; ref ImmunoMet, 2018; cited from earlier work
[6] = tested on: Hs746T GC xenograft; design: method as in ImmunoMet, 2018; conditions: Hs746T GC xenograft in mice, each compound alone; IM156 10 or 30 mg/kg, Irinotecan 50 or 75 mg/kg; ref ImmunoMet, 2018; cited from earlier work
[7] = tested on: miR-17~92 overexpression Eµ-MYC lymphoma; design: method as in ImmunoMet, 2018; conditions: nude mice, IM156 in drinking water 0.8 mg/mL, vs control line or regular drinking water; ref ImmunoMet, 2018; cited from earlier work
[8] = tested on: GC lines including MKN-74; design: method as in ImmunoMet, 2018; conditions: Eleven GC lines including MKN-74; ref ImmunoMet, 2018; cited from earlier work
[9] = tested on: Glioblastoma cells; design: method as in ImmunoMet, 2018; conditions: 15 µM IM156, 500 µM temozolomide, ref ImmunoMet, 2018; cited from earlier work
[10] = tested on: tumor cells; design: method as in Immunomet – Data on File; conditions: at equal concentrations, ref Immunomet – Data on File, cited from earlier work
[11] = tested on: OXPHOS; design: method as in ImmunoMet, 2018; conditions: at the highest concentrations; ref ImmunoMet, 2018; cited from earlier work
[12] = tested on: SD rats; conditions: 2018, cited from earlier work
[13] = SD rats, 50, 100/75, or 150/100 mg/kg QOD oral gavage; ref ImmunoMet, 2018; cited from earlier work
[14] = beagle dogs, ref ImmunoMet, 2018, cited from earlier work
[15] = tested on: rodent bone marrow; conditions: ref ImmunoMet, 2018; cited from earlier work
[16] = Day 27, cohort 1, 100 mg QOD, n<3
[17] = Day 27, cohort 7, 1200 mg QD, n<3
[18] = 150 mg/kg/dose QOD oral, between Days 8 and 10, ref ImmunoMet
[19] = oral QOD over 27 days (14 doses), ref ImmunoMet

NC(=Nc1ccc(OC(F)(F)F)cc1)N=C(N)N1CCCC1 [IM156]
IM156 excreted in the urine ([1]; Day 1, 200—1200 mg QOD, approximately): 8–10% | % Dose Recovered ([1]; Day 1, cohort 1, 100 mg QOD): 1.79 ± 0.620% | CLr ([1]; Day 1, cohort 1, 100 mg QOD): 6.16 ± 5.25 L/h | Total Amount Excreted (Ae) ([1]; Day 1, cohort 1, 100 mg QOD): 1790 ± 620 µg | % Dose Recovered ([1]; Day 1, cohort 2, 200 mg QOD): 10.0 ± 1.57% | CLr ([1]; Day 1, cohort 2, 200 mg QOD): 6.69 ± 0.709 L/h | Total Amount Excreted (Ae) ([1]; Day 1, cohort 2, 200 mg QOD): 20000 ± 3150 µg | % Dose Recovered ([1]; Day 1, cohort 3, 400 mg QOD): 7.90 ± 2.90% | CLr ([1]; Day 1, cohort 3, 400 mg QOD): 9.41 ± 6.80 L/h | Total Amount Excreted (Ae) ([1]; Day 1, cohort 3, 400 mg QOD): 31600 ± 11600 µg | % Dose Recovered ([1]; Day 1, cohort 4, 800 mg QOD): 7.86 ± 4.25% | CLr ([1]; Day 1, cohort 4, 800 mg QOD): 10.4 ± 6.93 L/h | Total Amount Excreted (Ae) ([1]; Day 1, cohort 4, 800 mg QOD): 62900 ± 34000 µg | % Dose Recovered ([1]; Day 1, cohort 5, 1200 mg QOD): 9.11 ± 12.9% | CLr ([1]; Day 1, cohort 5, 1200 mg QOD): 7.89 ± 9.01 L/h | Total Amount Excreted (Ae) ([1]; Day 1, cohort 5, 1200 mg QOD): 109000 ± 155000 µg | % Dose Recovered ([1]; Day 1, cohort 6, 800 mg QD): 7.96 ± 5.94% | CLr ([1]; Day 1, cohort 6, 800 mg QD): 7.92 ± 2.62 L/h | Total Amount Excreted (Ae) ([1]; Day 1, cohort 6, 800 mg QD): 63700 ± 47500 µg | % Dose Recovered ([1]; Day 1, cohort 7, 1200 mg QD): 8.79 ± 2.05% | CLr ([1]; Day 1, cohort 7, 1200 mg QD): 7.60 ± 4.02 L/h | Total Amount Excreted (Ae) ([1]; Day 1, cohort 7, 1200 mg QD): 105000 ± 24600 µg | % Dose Recovered [1, 16]: 4.32% | CLr [1, 16]: 4.46 L/h | Total Amount Excreted (Ae) [1, 16]: 4320 µg | % Dose Recovered ([1]; Day 27, cohort 2, 200 mg QOD): 13.9 ± 2.34% | CLr ([1]; Day 27, cohort 2, 200 mg QOD): 6.83 ± 1.58 L/h | Total Amount Excreted (Ae) ([1]; Day 27, cohort 2, 200 mg QOD): 27700 ± 4680 µg | % Dose Recovered ([1]; Day 27, cohort 3, 400 mg QOD): 16.2 ± 11.4% | CLr ([1]; Day 27, cohort 3, 400 mg QOD): 8.68 ± 1.52 L/h | Total Amount Excreted (Ae) ([1]; Day 27, cohort 3, 400 mg QOD): 64700 ± 45600 µg | % Dose Recovered ([1]; Day 27, cohort 4, 800 mg QOD): 16.2 ± 9.80% | CLr ([1]; Day 27, cohort 4, 800 mg QOD): 11.2 ± 6.94 L/h | Total Amount Excreted (Ae) ([1]; Day 27, cohort 4, 800 mg QOD): 129000 ± 78400 µg | % Dose Recovered ([1]; Day 27, cohort 5, 1200 mg QOD): 18.7 ± 10.6% | CLr ([1]; Day 27, cohort 5, 1200 mg QOD): 10.9 ± 7.79 L/h | Total Amount Excreted (Ae) ([1]; Day 27, cohort 5, 1200 mg QOD): 225000 ± 128000 µg | % Dose Recovered ([1]; Day 27, cohort 6, 800 mg QD): 34.8 ± 6.56% | CLr ([1]; Day 27, cohort 6, 800 mg QD): 8.72 ± 3.01 L/h | Total Amount Excreted (Ae) ([1]; Day 27, cohort 6, 800 mg QD): 279000 ± 52500 µg | % Dose Recovered [1, 17]: 21.0% | CLr [1, 17]: 7.16 L/h | Total Amount Excreted (Ae) [1, 17]: 252000 µg | % Dose Recovered ([1]; Fed 1, cohort 7, 1200 mg): 5.42 ± 3.51% | CLr ([1]; Fed 1, cohort 7, 1200 mg): 5.16 ± 3.51 L/h | Total Amount Excreted (Ae) ([1]; Fed 1, cohort 7, 1200 mg): 65100 ± 42100 µg | duration of prolonged SD / time on IM156 ([2]; 1 patient with gastric adenocarcinoma): 169 days | duration of prolonged SD / time on IM156 ([2]; 1 patient with gastric neuroendocrine carcinoma): 444 days | objective responses (CRs or PRs) ([2]; 16 of 22 patients with response data): No objective responses; also recorded: No clinical responses | median PFS ([2]; Kaplan–Meier): 54 days | median PFS, 95% CI ([2]; Kaplan–Meier): 47 to 71 days | disease control rate (DCR) ([2]; N = 22): 32% | patients with confirmed SD ([2]; N = 22): 2 patients | patients with confirmed SD, percent ([2]; N = 22): 9% | patients with stable disease (SD) as best response ([2]; N = 22): 7 patients | patients with stable disease (SD) as best response, percent ([2]; N = 22): 32% | inhibition of OXPHOS in whole blood ex vivo [3]: very little inhibition | IC50 [4]: 9 µM | potency as protein complex 1 inhibitor relative to metformin [5]: ~ 100 times | reduction of tumor volume [6]: ~ 70% | extension of overall animal survival [7]: approximately 50% | sensitivity of GC lines to single agent [8]: significant sensitivity | neurosphere size [9]: decreased | reduction of cellular ATP production versus phenformin ([10]; without increase in ECAR): more potent | decrease of oxygen consumption rate (OCR) of tumor cells compared to phenformin and metformin [10]: more potent | time to show OXPHOS inhibition [11]: ≤ 20 min | tolerability ([12]; 50 mg/kg/dose QOD oral gavage, 27 days, ref ImmunoMet): well tolerated | preterminal euthanasia, females [12, 18]: 3/15 | preterminal euthanasia, males [12, 18]: 2/15 | no-observed-adverse-effect level (NOAEL) [12, 19]: 50 mg/kg/dose | severely toxic dose in 10% of the rats (STD10) [12, 19]: 100 mg/kg/dose | dose proportionality of exposure based on AUClast [13]: more than dose-proportional | dose proportionality of exposure based on Cmax [13]: less than dose-proportional | accumulation over 27 days ([14]; 20 mg/kg/dose QOD): no apparent accumulation | accumulation over 27 days ([14]; 40 and 80 mg/kg/dose QOD): accumulation | genotoxicity in in vivo micronucleus test [15]: not genotoxic
